Measured values taken from ChEMBL document CHEMBL3421579, “Absolute configuration of labdane diterpenoids from Physalis nicandroides” (J Nat Prod, 2015).

Legend:
Mus musculus [1] = test: Anti-inflammatory activity in CD1 mouse model of TPA-induced ear edema assessed as inhibition of ear edema at 0.1 to 1 umol/ear applied to right ear 10 mins after TPA-stimulation and measured 4 hrs post compound dose; format: functional, organism-based
Mus musculus [2] = test: Anti-inflammatory activity in CD1 mouse model of TPA-induced ear edema assessed as inhibition of ear edema at 1 umol/ear applied to right ear 10 mins after TPA-stimulation and measured 4 hrs post compound dose; format: functional
Mus musculus [3] = test: Anti-inflammatory activity in CD1 mouse model of TPA-induced ear edema assessed as inhibition of ear edema at 0.1 to 1 umol/ear applied to right ear 10 mins after TPA-stimulation and measured 4 hrs post compound dose relative to indomethacin; format: functional

SMILES	IC50 (Mus musculus [1]) [µmol]	inhibition (INH) (Mus musculus [2]) [%]	Ratio IC50 (Mus musculus [3])
COc1ccc2c(c1)c(CC(=O)O)c(C)n2C(=O)c1ccc(Cl)cc1 [INDOMETHACIN]	0.297	–	–
C/C(=C\CO)CC[C@@H]1[C@@]2(C)CCCC(C)(C)[C@@H]2CC[C@@]1(C)O	0.67	64.32	2
C=C1CC[C@H]2C(C)(C)CCC[C@]2(C)[C@H]1CC/C(=C/CO)CO	–	41.35	–
